Laboratory results: US20240115622A1, “FORMULATION FOR THE PREVENTION AND/OR TREATMENT OF COVID-19” (priority 2022, published 2024)
Like-named read-outs stand apart in the source and are kept apart here.

Key:
porcine coronavirus PEDV = assay: PEDV infection of Vero E6 cells, antiviral activity by CPE
[1] = system: human respiratory coronavirus OC43; assay: HCT-8 cells infected with human respiratory coronavirus OC43, antiviral effect (CPE, WST-1); type: cell-based
VERO E6 cells [2] = assay: cytotoxicity of the compounds on Vero E6 cells
VERO E6 cells [3] = system: VERO E6 cells

Row | Compound | visual scores of the CPE, effect against PEDV infection (porcine coronavirus PEDV; FIG. 1, 3 days post infection, PEDV-infected Vero E6 cells, low concentrations) | low concentration with protective effect against PEDV infection (below the cytotoxic concentrations) (porcine coronavirus PEDV; Vero E6 cells, medium with 2% FBS, speculated, to be better sustained) [%] | PEDV induced cytotoxicity (porcine coronavirus PEDV; medium without FBS, high concentrations of the compound) | time for which a significant effect was sustained ([1]; after 2 hours of treatment exposure) [days] | concentration with optimal effect in protecting cells from coronaviral infection ([1]; overall conclusion of the coronavirus experiments) [%] | cytotoxicity, effect of low concentration of FBS (VERO E6 cells [2]; medium supplemented with 2% FBS) | cytotoxicity (VERO E6 cells [2]; medium without FBS) | cytotoxicity (VERO E6 cells [3]) | cytotoxicity, effect of low concentration of FBS (VERO E6 cells [3])
1 | OC[C@@H](O)[C@H](O)[C@@H](O)CO [xylitol] | protective effects | ≤ 3 | higher | 4 | 0.5 | significantly decreased | very high | – | –
2 | propolis | – | – | – | – | – | – | – | very high | significantly decreased
